# Results: patent US11963960B2 (Flash Therapeutics, LLC, priority 2020, dated 2024)
# Target: N-terminally GST-tagged HCK (75-526) (Homo sapiens (Human), UniProt P08631)
# Test: HCK Kinase Assay (ProFluor Src-Family Kinase Assay)
# Format: biochemical
# Conditions: not given
# Description: The procedure of ProFluor Src-Family Kinase Assay (Promega, Cat. No. V1271) was then followed. To the reaction was added 5 μL Protease solution and the mixture was incubated for 60 minutes at room temperature (22-25° C.), followed by 5 μL Stabilizer solution. The fluorescence signal was read on an Envision multilabel plate reader (Perkin Elmer). The R110 was then read at an excitation wavelength of 485 nm and an emission wavelength of 530 nm. The AMC signal was read at an excitation wavelength of 355 nm and an emission wavelength of 460 nm.
# N-terminally GST-tagged HCK (75-526), sequence (P08631 75-526): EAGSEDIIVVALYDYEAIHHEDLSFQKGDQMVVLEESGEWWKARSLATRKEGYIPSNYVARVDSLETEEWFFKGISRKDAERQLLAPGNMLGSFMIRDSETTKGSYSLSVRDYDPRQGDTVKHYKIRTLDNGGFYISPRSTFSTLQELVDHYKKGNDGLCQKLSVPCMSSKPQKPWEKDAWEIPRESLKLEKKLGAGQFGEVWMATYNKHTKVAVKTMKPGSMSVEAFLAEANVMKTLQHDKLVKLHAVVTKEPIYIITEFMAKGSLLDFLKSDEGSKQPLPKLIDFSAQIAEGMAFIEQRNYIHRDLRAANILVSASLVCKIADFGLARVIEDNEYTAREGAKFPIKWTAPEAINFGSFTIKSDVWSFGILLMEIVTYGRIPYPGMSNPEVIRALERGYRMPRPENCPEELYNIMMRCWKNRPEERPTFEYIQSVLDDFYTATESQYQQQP
row,IC50 [nM],Compound
1,< 50,"[2H]C([2H])([2H])N1C([2H])([2H])C([2H])([2H])N([C@H]2CC[C@@H](n3cc(-c4ccc(Oc5ccccc5)cc4)c4c(N)ncnc43)CC2)C([2H])([2H])C1([2H])[2H] (single isomer, unassigned) [Example 6, 7-((cis)-4-(4-d3-methyl-d8-piperazin-1-yl)cyclohexyl)-5-(4-phenoxyphenyl)-7H-pyrrolo[2,3-d]pyrimidin-4-amine]"

# Same assay, conditions: HCK inhibitory activity, 50 μM ATP; read-out: HCK Activity
row,IC50 [nM],Compound
1,< 50,"Nc1ncnc2c1c(-c1ccc(Oc3ccccc3)cc1)cn2[C@H]1CC[C@H](N2CCC[C@H](N)C2)CC1 [Example 56, 7-((trans)-4-((S)-3-aminopiperidin-1-yl)cyclohexyl)-5-(4-phenoxyphenyl)-7H-pyrrolo[2,3-d]pyrimidin-4-amine]"
2,50 to 250,"CC[C@H]1CN([C@H]2CC[C@@H](n3cc(-c4ccc(Oc5ccccc5)cc4)c4c(N)ncnc43)CC2)CCN1 [Example 30, 7-((cis)-4-((S)-3-ethylpiperazin-1-yl)cyclohexyl)-5-(4-phenoxyphenyl)-7H-pyrrolo[2,3-d]pyrimidin-4-amine]"
3,< 50,"C[C@@H]1CN([C@H]2CC[C@H](n3cc(-c4ccc(Oc5ccccc5)cc4F)c4c(N)ncnc43)CC2)CCN1 [Example 15, 5-(2-fluoro-4-phenoxyphenyl)-7-((trans)-4-((R)-3-methylpiperazin-1-yl)cyclohexyl)-7H-pyrrolo[2,3-d]pyrimidin-4-amine]"
4,250 to 10000,"C[C@H]1CN([C@H]2CC[C@@H](c3nc(-c4ccc(Oc5ccccc5)cc4F)c4c(N)ncnn43)CC2)CCN1 [Example 166, 5-(2-fluoro-4-phenoxyphenyl)-7-((cis)-4-((S)-3-methylpiperazin-1-yl)cyclohexyl)imidazo[5,1-f][1,2,4]triazin-4-amine]"
5,< 50,"Nc1ncnc2c1c(-c1ccc(Oc3ccccc3)cc1)cn2C1CCN(C2CCNC(CO)C2)CC1 (stereo not drawn) [Example 157, (4-(4-amino-5-(4-phenoxyphenyl)-7H-pyrrolo[2,3-d]pyrimidin-7-yl)-[1,4′-bipiperidin]-2′-yl)methanol]"
6,50 to 250,"CC[C@H]1CN([C@H]2CC[C@@H](n3nc(-c4ccc(Oc5ccccc5)cc4F)c4c(N)ncnc43)CC2)CCN1 [Example 32, 1-((cis)-4-((S)-3-ethylpiperazin-1-yl)cyclohexyl)-3-(2-fluoro-4-phenoxyphenyl)-1H-pyrazolo[3,4-d]pyrimidin-4-amine]"
7,< 50,"CN1CCN([C@H]2CC[C@H](n3cc(-c4ccc(Oc5ccccc5)cc4)c4c(N)ncnc43)CC2)CC1CO (stereo partly drawn) [Example 33, (4-((trans)-4-(4-amino-5-(4-phenoxyphenyl)-7H-pyrrolo[2,3-d]pyrimidin-7-yl)cyclohexyl)-1-methylpiperazin-2-yl)methanol]"
8,< 50,"CN1CCC(N2CCC(n3nc(-c4ccc(Oc5ccccc5)cc4F)c4c(N)ncnc43)CC2)CC1 [Example 147, 3-(2-fluoro-4-phenoxyphenyl)-1-(1′-methyl-[1,4′-bipiperidin]-4-yl)-1H-pyrazolo[3,4-d]pyrimidin-4-amine]"
9,< 50,"Nc1ncnc2c1c(-c1ccc(Oc3ccccc3)cc1)cn2[C@H]1CC[C@H](N2CCNC3(CC3)C2)CC1 [Example 35, 7-((trans)-4-(4,7-diazaspiro[2.5]octan-7-yl)cyclohexyl)-5-(4-phenoxyphenyl)-7H-pyrrolo[2,3-d]pyrimidin-4-amine]"
10,50 to 250,"Cc1ccc(Oc2ccc(-c3cn([C@H]4CC[C@H](N5CCN(C)CC5)CC4)c4ncnc(N)c34)cc2)cc1 [Example 111, 7-((trans)-4-(4-methylpiperazin-1-yl)cyclohexyl)-5-(4-(p-tolyloxy)phenyl)-7H-pyrrolo[2,3-d]pyrimidin-4-amine]"
11,< 50,"CN[C@@H]1CCCN([C@H]2CC[C@@H](n3cc(-c4ccc(Oc5ccccc5)cc4)c4c(N)ncnc43)CC2)C1 [Example 61, 7-((cis)-4-((R)-3-(methylamino)piperidin-1-yl)cyclohexyl)-5-(4-phenoxyphenyl)-7H-pyrrolo[2,3-d]pyrimidin-4-amine]"
12,50 to 250,"Nc1ncnc2c1c(-c1ccc(Oc3ccccc3)cc1)cn2C1CCC2(CC1)NC(=O)N(c1ccncc1)C2=O (stereo not drawn) [Example 93, 8-(4-Amino-5-(4-phenoxyphenyl)-7H-pyrrolo[2,3-d]pyrimidin-7-yl)-3-(pyridin-4-yl)-1,3-diazaspiro [4.5] decane-2,4-dione]"
13,50 to 250,"Nc1ncnc2c1c(-c1ccc(Oc3ccccc3)cc1)cn2[C@H]1CC[C@H](N2CCC3(CCNC3)C2)CC1 (relative stereo) [Example 136, 7-((trans)-4-(2,7-diazaspiro[4.4]nonan-2-yl)cyclohexyl)-5-(4-phenoxyphenyl)-7H-pyrrolo[2,3-d]pyrimidin-4-amine]"
14,< 50,"Nc1ncnc2c1c(-c1ccc(Oc3ccccc3)cc1)cn2[C@H]1CC[C@H](N2CCCC(N)C2)CC1 (stereo partly drawn) [Example 54, 7-((trans)-4-(3-aminopiperidin-1-yl)cyclohexyl)-5-(4-phenoxyphenyl)-7H-pyrrolo[2,3-d]pyrimidin-4-amine]"

# The remaining lines, values behind:
row,Compound,IC50 [nM]
1,"CN1CCC(N2CCC(n3nc(-c4ccc(NC(=O)Nc5cc(C(C)(C)C)on5)cc4)c4c(N)ncnc43)CC2)CC1 [Example 148, 1-(4-(4-Amino-1-(1′-methyl-[1,4′-bipiperidin]-4-yl)-1H-pyrazolo[3,4-d]pyrimidin-3-yl)phenyl)-3-(5-(tert-butyl)isoxazol-3-yl)urea]",50 to 250
2,"CN1CCC(N2CCC(n3cc(-c4ccc(NC(=O)Nc5cc(C(C)(C)C)on5)cc4)c4c(N)ncnc43)CC2)CC1 [Example 151, 1-(4-(4-amino-7-(1′-methyl-[1,4′-bipiperidin]-4-yl)-7H-pyrrolo[2,3-d]pyrimidin-5-yl)phenyl)-3-(5-(tert-butyl)isoxazole-3-yl)urea]",< 50
3,"Nc1ncnc2c1c(-c1ccc(Oc3ccccc3)cc1)cn2C1CCC2(CC1)OCC(N)CO2 (stereo not drawn) [Example 92, 7-(3-Amino-1,5-dioxaspiro[5.5]undecan-9-yl)-5-(4-phenoxyphenyl)-7H-pyrrolo [2,3-d]pyrimidin-4-amine]",50 to 250
4,"C[C@H]1CN([C@H]2CC[C@H](n3cc(-c4ccc(Oc5ccccc5)cc4F)c4c(N)ncnc43)CC2)CCN1 [Example 126, 5-(2-fluoro-4-phenoxyphenyl)-7-((trans)-4-((S)-3-methylpiperazin-1-yl)cyclohexyl)-7H-pyrrolo[2,3-d]pyrimidin-4-amine]",< 50
5,"CP1(=O)CCN([C@H]2CC[C@H](n3cc(-c4ccc(Oc5ccccc5)cc4)c4c(N)ncnc43)CC2)CC1 [Example 67, 1-((trans)-4-(4-amino-5-(4-phenoxyphenyl)-7H-pyrrolo[2,3-d]pyrimidin-7-yl)cyclohexyl)-4-methyl-1,4-azaphosphinane 4-oxide]",50 to 250
6,"CC(C)c1cc(NC(=O)Nc2ccc(-c3cn([C@H]4CC[C@H](N5CCN(C)CC5)CC4)c4ncnc(N)c34)cc2)no1 [Example 119, 1-(4-(4-amino-7-((trans)-4-(4-methylpiperazin-1-yl)cyclohexyl)-7H-pyrrolo[2,3-d]pyrimidin-5-yl)phenyl)-3-(5-isopropylisoxazol-3-yl)urea]",< 50
7,"CN[C@@H]1CCCN([C@H]2CC[C@H](n3cc(-c4ccc(Oc5ccccc5)cc4)c4c(N)ncnc43)CC2)C1 [Example 60, 7-((trans)-4-((R)-3-(methylamino)piperidin-1-yl)cyclohexyl)-5-(4-phenoxyphenyl)-7H-pyrrolo[2,3-d]pyrimidin-4-amine]",< 50
8,"CP1(=O)CCN([C@H]2CC[C@@H](n3cc(-c4ccc(Oc5ccccc5)cc4)c4c(N)ncnc43)CC2)CC1 [Example 68, 1-((cis)-4-(4-amino-5-(4-phenoxyphenyl)-7H-pyrrolo[2,3-d]pyrimidin-7-yl)cyclohexyl)-4-methyl-1,4-azaphosphinane 4-oxide]",< 50
9,"C[C@H]1CC(N2CCC(n3cc(-c4ccc(Oc5ccccc5)cc4)c4c(N)ncnc43)CC2)CCN1 (stereo partly drawn) [Example 154, 7-((2′S)-2′-methyl-[1,4′-bipiperidin]-4-yl)-5-(4-phenoxyphenyl)-7H-pyrrolo[2,3-d]pyrimidin-4-amine]",< 50
10,"CC1(N)CCN([C@H]2CC[C@@H](n3cc(-c4ccc(Oc5ccccc5)cc4)c4c(N)ncnc43)CC2)CC1 [Example 51, 7-((cis)-4-(4-amino-4-methylpiperidin-1-yl)cyclohexyl)-5-(4-phenoxyphenyl)-7H pyrrolo[2,3-d]pyrimidin-4-amine]",< 50
11,"Nc1ncnc2c1c(-c1ccc(Oc3ccccc3)cc1)cn2[C@H]1CC[C@@H](N2CCNC3(CC3)C2)CC1 [Example 36, 7-((cis)-4-(4,7-diazaspiro[2.5]octan-7-yl)cyclohexyl)-5-(4-phenoxyphenyl)-7H-pyrrolo[2,3-d]pyrimidin-4-amine]",50 to 250
12,"CN1CCN([C@H]2CC[C@@H](c3cc(-c4ccc(Oc5ccccc5)cc4)c4c(N)ncnn43)CC2)CC1 [Example 167, 7-((cis)-4-(4-Methylpiperazin-1-yl)cyclohexyl)-5-(4-phenoxyphenyl)pyrrolo[2,1-f][1,2,4]triazin-4-amine]",250 to 10000
13,COc1cc(-c2nn([C@H]3CC[C@H](N4CCN(C)CC4)CC3)c3ncnc(N)c23)ccc1Oc1ccccc1 [Example 110],< 50
14,"CN1CCN(CC2(O)CCC(n3cc(-c4ccc(Oc5ccccc5)cc4)c4c(N)ncnc43)CC2)CC1 (stereo not drawn) [Example 100, 4-(4-Amino-5-(4-phenoxyphenyl)-7H-pyrrolo[2,3-d]pyrimidin-7-yl)-1-((4-methylpiperazin-1-yl)methyl)cyclohexanol]",50 to 250
15,"NC(=O)CC1(N)CCC(n2cc(-c3ccc(Oc4ccccc4)cc3)c3c(N)ncnc32)CC1 (stereo not drawn) [Example 96, 2-(1-Amino-4-(4-amino-5-(4-phenoxyphenyl)-7H-pyrrolo[2,3-d]pyrimidin-7-yl)cyclohexyl)acetamide]",< 50
